Reference: PubChem BioAssay AID1996
Values after ≈ are worked out from the molar mass of the structure shown.

conditions: buffer; pH 7.4; 200.0 µM

SMILES | solubility kinetic [µg/mL]
O=C(NCc1cccnc1)C12CC3CC(CC(C3)C1)C2 | 38.7 (≈ 143 µM)
COc1cc(/C=C/[N+](=O)[O-])ccc1OC(=O)/C=C/c1ccc(F)cc1 | < 0.7
Cc1ccnc(NC(=O)CSc2ccccn2)c1 | 36.7 (≈ 142 µM)
Cc1ccc(NC(=O)COC(=O)CNC(=O)C2CCCCC2)cc1S(=O)(=O)N(C)C | > 65.9
Cc1cc2oc(C(=O)NCc3ccccc3)cc(=O)c2cc1C | 0.9 (≈ 2.93 µM)
CCOCCCNC(=O)C1CC(=O)N(CCc2ccc(C)cc2)C1 (stereo not given) | > 49.9
O=C1CN(C(=O)COC(=O)CCC(=O)c2ccc(F)cc2)c2ccccc2N1 | 31.6 (≈ 82.2 µM)
CC(O)CNc1nc2c(c(=O)n(Cc3cccc(Cl)c3)c(=O)n2C)n1C (stereo not given) | 50.5 (≈ 134 µM)
NS(=O)(=O)c1ccc(CNC(=O)c2ccc(C(=O)c3ccccc3)cc2)cc1 | 14.6 (≈ 37 µM)
CN(C)c1ccc(P(=O)(OC2CCCCC2)C(O)c2ccncc2)cc1 (stereo not given) | 52.8 (≈ 141 µM)
CS(=O)(=O)N(CC(=O)Nc1ccc(F)cc1F)C1CCCCC1 | > 52
O=Cc1ccc(-c2cccc([N+](=O)[O-])c2)o1 | 6.3 (≈ 29 µM)
O=C(CCc1nc(-c2ccc(Cl)cc2)no1)NC1CCCC1 | 6.4 (≈ 20 µM)
COc1ccccc1NC(=O)CNC(=O)CC12CC3CC(CC(C3)C1)C2 | 43.1 (≈ 121 µM)
CN1CCCC(OC(=O)c2cccc(Br)c2)C1.Cl (stereo not given) | > 50.2
CC(C)CC(=O)N1CCN(C(=O)c2ccco2)CC1 | > 39.6
Cc1ccnc(NC(=O)CCS(=O)(=O)c2ccccc2)c1 | > 45.7
Cc1c(C(=O)OCC(=O)N(C)Cc2ccccc2)oc2ccccc12 | 23.3 (≈ 69.1 µM)
O=C1CCc2ccccc2N1 | 15.9 (≈ 108 µM)
N#Cc1ccccc1COC(=O)c1cccc(S(=O)(=O)N2CCCC2)c1 | 12 (≈ 32.4 µM)

SMILES | solubility kinetic [µg/mL]
CCC(C)C12CN3CCN(CC(C)(C3)C1O)C2 (stereo not given) | > 35.8
C=CCn1c(=S)sc2c(=O)[nH]c(C)nc21 | > 35.9
C=CCn1c(SCC(=O)NC2(C)CCS(=O)(=O)C2)nc2ccccc21 (stereo not given) | > 56.9
COc1ccc(C2c3c(nc[nH]c3=O)Oc3nc[nH]c(=O)c32)cc1 | > 48.6
COc1ccc(CNC(=O)Cn2ccc([N+](=O)[O-])n2)cc1OC | > 48
O=C(NCC(=O)N1CCN(c2ccccc2)CC1)c1cccs1 | > 49.4
COc1ccc(C(=O)NC(=S)N2CC(C)OC(C)C2)cc1OC (stereo not given) | > 50.8
Cc1cccc(C(=O)NCC(=O)N(C)Cc2nc3ccccc3c(=O)[nH]2)c1 | > 54.7
Cc1ccc(NC(=S)NC2CCSc3ccccc32)cc1C (stereo not given) | < 0.4
COC(=O)Cc1ccc(NC(=S)Nc2cccc(C)n2)cc1 | 1.6 (≈ 5.07 µM)
O=C(OCC(=O)N1CCc2ccccc21)c1ccccn1 | > 42.3
Cn1cccc1-c1nc2ccc([N+](=O)[O-])cc2[nH]1 | 15.2 (≈ 62.7 µM)
Cc1cc(C)c(S(=O)(=O)Nc2cnc3ccccc3c2)c(C)c1 | 19.2 (≈ 58.8 µM)
O=C(O/N=C(/c1ccccc1)c1ccncc1)c1ccccc1[N+](=O)[O-] | 8.3 (≈ 23.9 µM)
Cc1cc(SCC(=O)N2CCCC2=O)nc2c(C)cccc12 | 2.3 (≈ 7.32 µM)
CCN(CC)c1ccc(CNCCc2ccc(F)cc2)cc1.Cl | > 50.5
CCOc1cc(C)c(S(=O)(=O)N2CCCCC2)cc1C | 14.5 (≈ 48.8 µM)
CN(Cc1ccccc1)C(=O)CN1CCCC1=O | > 36.9
CCn1c(=O)c(C(=O)CN(C)CC(=O)Nc2cccc(F)c2)c(N)n(Cc2ccccc2)c1=O | 15.6 (≈ 33.4 µM)
COc1cc(/C=C/C(=O)OCC(=O)NCCCc2ccccc2)ccc1O | 52.9 (≈ 143 µM)

SMILES | solubility kinetic [µg/mL]
Cc1ccc(C(=O)Cn2cncn2)cc1.Cl | > 35.7
CCOC(=O)C1CCN(S(=O)(=O)c2cn(C)cn2)CC1 | > 45.2
N/C(=N\OC(=O)c1ccoc1)c1ccc(Br)cc1 | 9.2 (≈ 29.8 µM)
CCOC(=O)C1CCCN(C(=O)c2cc3ccccc3oc2=O)C1 (stereo not given) | 38.8 (≈ 118 µM)
CCCNC(=O)c1ccc(COc2ccc(C(C)(C)C)cc2)o1 | 10.9 (≈ 34.6 µM)
N#Cc1ccccc1OCC(=O)C1CC1 | 28.4 (≈ 141 µM)
Cc1cccc(C(=O)NC(=S)NCc2ccccc2)c1 | 2.4 (≈ 8.44 µM)
Cc1ccccc1NC(=S)NC12CN3CN(CN(C3)C1)C2 | > 45.5
COc1ccccc1CSc1nc2c(c(=O)n(C)c(=O)n2C)n1C | 9.8 (≈ 28.3 µM)
CN(C)c1ccc(/C=C/C#N)cc1 | 5.4 (≈ 31.4 µM)
COc1ccc(NC(=O)NC2CCCCCCC2)cc1 | 2.5 (≈ 9.05 µM)
Cc1nc2ccccc2c2oc(C(=O)N3CCC(C)CC3)cc12 | > 46.3
O=C(Nc1cccc(S(=O)(=O)N2CCOCC2)c1)c1ccc(Cl)nc1 | > 57.3
O=C(CSC1=NS(=O)(=O)c2ccccc2N1)Nc1ccccc1F | > 54.8
O=C(NCc1cccnc1)C1CC(c2cccc(Br)c2)=NO1 (stereo not given) | 52.5 (≈ 146 µM)
Cc1ccc(S(=O)(=O)NCCC(=O)NC2CCCCC2)cc1 | > 48.7
COC(=O)c1cc(C(=O)NCC2CCCCC2)cc([N+](=O)[O-])c1 | 33.3 (≈ 104 µM)
C=CCn1c(C(O)c2ccccc2)nc2ccccc21 (stereo not given) | 24.2 (≈ 91.6 µM)
Cc1cccnc1Nc1nc(-c2ccccc2)cs1 | 7.6 (≈ 28.4 µM)
Cc1ccc(C(=O)Nc2ccncc2)c(C)c1 | > 33.9
